Experimental findings from patent US7176183B2, “Methods for treating and preventing damage to mucosal tissue” (University of Southern California, priority 1999, dated 2007) are described below.

Series [1] relates to patients with newly diagnosed breast cancer receiving doxorubicin and cyclophosphamide. As to the kind of experiment: Phase I/II dose escalation study of AII(1–7) in chemotherapy patients: incidence of stomatitis (oral mucositis). Type of series: in vivo. The note with it: for Stomatitis (incidents of stomatitis associated with chemotherapy): chemotherapy patients (doxorubicin/cyclophosphamide), subcutaneous treatment, AII(1-7) n = 14, filgrastim n = 5. On the procedure: The Phase I/II study was a prospective, open-label, dose-escalation study comparing the effects of AII(1–7 (SEQ ID NO:4)) in patients with newly diagnosed breast cancer receiving doxorubicin 60 mg/m^2 and cyclophosphamide 600 mg/m^2 for at least 3 cycles of adjuvant chemotherapy following surgical tumor reduction. A filgrastim comparator arm was used to compare safety and response variables and to assess synergy of AII(1–7) with filgrastim (NEUPOGEN®, Amgen, Inc., Thousand Oaks, Calif.).
Patients who satisfied the inclusion/exclusion criteria received a once daily subcutaneous injection of the given AII(1–7) dose level for 7 days followed by a 1 week rest period prior to any chemotherapy (cycle 0) in the interval between tumor reduction and planned chemotherapy. Dose escalation within an individual patient was not permitted.
Following the rest period, a chemotherapy regimen containing doxorubicin 60 mg/m^2 and cyclophosphamide 600 mg/m^2 was initiated. AII(1–7) was administered for at least 10 days, or until the absolute neutrophil count (ANC)>1500/μL for 2 days, beginning two days after chemotherapy. Up to three chemotherapy cycles followed by AII(1–7) administration will be repeated every 21 days or as indicated by patient tolerance. Any patient that fails to achieve an ANC>1500/μL by day 15 (13 days of AII(1–7)) received a filgrastim rescue of 5.0 μg/kg/day until the ANC>1500/μL for 2 days.
During the conduct of the AII (1–7) clinical trial to examine the effect of subcutaneous injection of AII(1–7) on hematological recovery in new breast cancer patients receiving chemotherapy (doxorubicin/cyclophosphamide), adverse events that occurred were collected.
An adverse event (AE) was considered any unfavorable or unintended change in structure, function, signs, or symptoms temporally associated with the use of a medicinal product experienced by a person administered a pharmaceutical product, whether or not a causal relationship with the product has been established. During the conduct of this clinical trial, study personnel asked open-ended questions to obtain information about AEs at every visit. Signs and symptoms were graded by the Investigator using the WHO toxicity criteria. […] If there was stomatitis, it was graded on a four point scale as: […]

For the next series, the system named is Female C57B1/6 mice. The series is described as follows: Gastrointestinal mucositis induced by cyclophosphamide injection into mice, histological scoring. The note with it: for Epithelium score / Crypt Architecture score / Overall score: AII(1–7) 100 μg/kg s.c., one line per animal. It counts as in vivo. On the set-up: key to Overall score: 0: No lesion; <10% Crypts distorted; 2: >10% Crypts distorted, no necrotic cells; 3: >10% Crypts distorted, occasional necrotic cell; 4: Same as 3 except more extensive; key to Epithelium score / Crypt Architecture score: 0: Normal; <10% Crypt distortion; 2: 10–50% Crypt distortion; 3: >50% Crypt distortion. As to the method:
Female C57B1/6 mice were given an intraperitoneal injection of cyclophosphamide at concentrations of 200 or 250 mg/kg. After 2 days, the mice began treatment with either AII(1–7) (100 μg/kg), or phosphate buffered saline, both of which were given subcutaneously. The baseline weight of the mice was determined, and the mice were observed daily for 7–14 days, after which the animals were necropsied. Samples from the intestines were taken at four levels, in that the intestine was cut transversely at four places along the intestinal tract, from which histological preparations were made and evaluated, in order to reduce bias due to site selection. The samples were fixed in formalin for histological evaluation of crypt distortion and architecture, as well as epithelial attenuation. The crypt is a part of the gastrointestinal tract where the mucosal glands reside. Crypt distortion is a measure of the amount of disruption to the tissue that occurs as a result of mucosal damage. The epithelium is the cell/mucosal lining to the gastrointestinal tract. Epithelial attenuation is a measure of the amount of destruction to the epithelial lining.
Histological scoring was performed in a blinded fashion. The scores on the accompanying table were given on the following scale: […]

Series [2] in a line: Effectiveness test of AII fragments (test not specified).
Setting [3] is: cyclophosphamide 200 mg/kg i.p., listed as A(1-7).
The mark [4] stands for this setting: cyclophosphamide 250 mg/kg i.p., listed as A(1-7).

Where “and” joins values, the source holds several entries; their conditions need not be identical. Equal values may be shown once. Entries after “also recorded” stand apart in the source; their conditions may differ.

Consider Asp-Arg-Val-Tyr-Ile-His-Pro [AII(1–7)], for which the “Reduction of the frequency of stomatitis relative to that observed with filgrastim treatment” value in series [1] (chemotherapy patients) was 30%. Besides, the “Stomatitis (incidents of stomatitis associated with chemotherapy)” value in series [1] turned out to be 40%. Further, the “Effect on stomatitis (oral mucositis) relative to control” value in series [1] (subcutaneous administration, chemotherapy patients) was “reduced; also recorded: significantly decreased”. Moreover, the Epithelium score in the series on Female C57B1/6 mice (cyclophosphamide 200 mg/kg i.p.) was 1 (Mild Attenuation (<10%)). Besides, in the series on Female C57B1/6 mice (setting [3]), the “Crypt Architecture score” value is 0 and 1 (<10% Crypt distortion) (2×); the Overall score is 0 and 1 (<10% Crypts distorted) (2×). Further, in the series with Female C57B1/6 mice (setting [4]), the “Crypt Architecture score” value was 1 (<10% Crypt distortion) (2×) and 2 (10–50% Crypt distortion); the Epithelium score was 0 and 1 (Mild Attenuation (<10%)) (2×); the Overall score is 0 and 1 (<10% Crypts distorted) and 2 (>10% Crypts distorted, no necrotic cells). Besides, the “Level of gastrointestinal mucositis by all histological scores” value in the series on Female C57B1/6 mice (versus saline) is reported as “reduced”.
In the case of His-Pro-Phe (HPF) [AII(6–8)], the Effectiveness result in series [2] is listed as “not to be effective”.
Take Tyr-Ile-His-Pro-Phe (YIHPF) [AII(4–8)]: in series [2], the Effectiveness result is “not to be effective; also recorded: ineffective”.

B1: filgrastim (protein, chains of the INN, looked up)
chain: MTPLGPASSLPQSFLLKCLEQVRKIQGDGAALQEKLCATYKLCHPEELVLLGHSLGIPWAPLSSCPSQALQLAGCLSQLHSGLFLYQGLLQALEGISPELGPTLDTLQLDVADFATTIWQQMEELGMAPALQPTQGAMPAFASAFQRRAGGVLVASHLQSFLEVSYRVLRHLAQP
notes: filgrastim (NEUPOGEN®, Amgen, Inc.), comparator arm
Take B1: the “Stomatitis (incidents of stomatitis associated with chemotherapy)” value in series [1] amounted to 60%.
